Test results taken from patent US10308644B2, “Heterocyclic compounds as immunomodulators” (Incyte Corporation, priority 2016, dated 2019).

Molecular target: PD-1/PD-L1 (Homo sapiens (Human), UniProt Q9NZQ7)
Assay: PD-1/PD-L1 Homogeneous Time-Resolved Fluorescence (HTRF) Binding Assay
Conditions: recombinant human PD-1 (3 nM) and PD-L1 (10 nM), 25° C., PBS pH 7.4
Summary of the method: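 Fc-tagged human PD-1 (25-167, 3 nM) and His-tagged PD-L1 (19-238, 10 nM) preincubated with inhibitor 40 min in PBS pH 7.4, 0.05% Tween-20, 0.1% BSA, 1% DMSO, 25 °C. Binding detected by HTRF (Eu anti-IgG/APC anti-His, 665/620 nm) after 60 min; IC50 from percent control activity.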

PD-1/PD-L1, sequence (Q9NZQ7 19-238): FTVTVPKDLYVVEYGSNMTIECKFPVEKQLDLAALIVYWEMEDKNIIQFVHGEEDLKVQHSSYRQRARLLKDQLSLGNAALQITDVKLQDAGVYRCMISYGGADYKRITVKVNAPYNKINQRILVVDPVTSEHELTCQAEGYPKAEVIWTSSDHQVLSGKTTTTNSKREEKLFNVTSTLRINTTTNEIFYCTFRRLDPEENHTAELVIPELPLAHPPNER

Row | Structure (SMILES) | IC50 [nM]
1 | Cc1c(-c2nc3cc(CN4CC[C@@H](C(=O)O)C4)cc(C#N)c3o2)cccc1-c1cccc(-c2nc3c(s2)CN(CC2CC2)CC3)c1C [Example 64, (R)-1-((7-cyano-2-(3′-(5-(cyclopropylmethyl)-4,5,6,7-tetrahydrothiazolo[5,4-c]pyridin-2-yl)-2,2′-dimethyl-[1,1′-biphenyl]-3-yl)benzo[d]oxazol-5-yl)methyl)pyrrolidine-3-carboxylic acid] | ≤ 10
2 | Cc1c(-c2nc3cc(CN4CC[C@@H](C(=O)O)C4)cc(C#N)c3o2)cccc1-c1cccc(-c2nc3c(s2)CN(CCO)CC3)c1C [Example 65, (R)-1-((7-cyano-2-(3′-(5-(2-hydroxyethyl)-4,5,6,7-tetrahydrothiazolo[5,4-c]pyridin-2-yl)-2,2′-dimethyl-[1,1′-biphenyl]-3-yl)benzo[d]oxazol-5-yl)methyl)pyrrolidine-3-carboxylic acid] | ≤ 10
3 | Cc1c(-c2nc3cc(CN4CC(C(=O)O)C4)cc(C#N)c3o2)cccc1-c1cccc(-c2nc3c(s2)CN(CCO)CC3)c1C [Example 68, 1-((7-cyano-2-(3′-(5-(2-hydroxyethyl)-4,5,6,7-tetrahydrothiazolo[5,4-c]pyridin-2-yl)-2,2′-dimethyl-[1,1′-biphenyl]-3-yl)benzo[d]oxazol-5-yl)methyl)azetidine-3-carboxylic acid] | ≤ 10
4 | Cc1c(-c2nc3cc(CN4CCC(C(=O)O)CC4)cc(C#N)c3o2)cccc1-c1cccc(NC(=O)c2nc3c(n2C)CCN(CCO)C3)c1Cl [Example 156, 1-((2-(2′-chloro-3′-(5-(2-hydroxyethyl)-1-methyl-4,5,6,7-tetrahydro-1H-imidazo[4,5-c]pyridine-2-carboxamido)-2-methylbiphenyl-3-yl)-7-cyanobenzo[d]oxazol-5-yl)methyl)piperidine-4-carboxylic acid] | ≤ 10
5 | Cc1c(-c2nc3cc(CN4CC[C@@H](C(=O)O)C4)cc(C#N)c3o2)cccc1-c1cccc(-c2nc3c(s2)CN(C(=O)CN2CC[C@H](O)C2)C3)c1C [Example 112, (R)-1-((7-cyano-2-(3′-(5-(2-((S)-3-hydroxypyrrolidin-1-yl)acetyl)-5,6-dihydro-4H-pyrrolo[3,4-d]thiazol-2-yl)-2,2′-dimethylbiphenyl-3-yl)benzo[d]oxazol-5-yl)methyl)pyrrolidine-3-carboxylic acid] | ≤ 10

Other lines, results leading:

Row | IC50 [nM] | Structure (SMILES)
6 | ≤ 10 | Cc1c(-c2nc3cc(CN4CC[C@@](C)(C(=O)O)C4)cc(C#N)c3o2)cccc1-c1cccc(Nc2nccc3cc(CN4CC[C@H](O)C4)cnc23)c1Cl [Example 34, (R)-1-((2-(2′-chloro-3′-(3-(((S)-3-hydroxypyrrolidin-1-yl)methyl)-1,7-naphthyridin-8-ylamino)-2-methylbiphenyl-3-yl)-7-cyanobenzo[d]oxazol-5-yl)methyl)-3-methylpyrrolidine-3-carboxylic acid]
7 | ≤ 10 | Cc1c(Nc2nccc3cc(CN4CC[C@@](C)(C(=O)O)C4)cnc23)cccc1-c1cccc(-c2nc3cc(CN[C@@H](C)CO)cc(C#N)c3o2)c1C [Example 215, (R)-1-((8-(3′-(7-cyano-5-(((S)-1-hydroxypropan-2-ylamino)methyl)benzo[d]oxazol-2-yl)-2,2′-dimethylbiphenyl-3-ylamino)-1,7-naphthyridin-3-yl)methyl)-3-methylpyrrolidine-3-carboxylic acid]
8 | ≤ 10 | Cc1c(Nc2nccc3cc(CN4CC[C@@H](O)C4)cnc23)cccc1-c1cccc(-c2nc3cc(CN4CC[C@@](C)(C(=O)O)C4)cc(C#N)c3o2)c1C [Example 100, (R)-1-((7-cyano-2-(3′-(3-(((R)-3-hydroxypyrrolidin-1-yl)methyl)-1,7-naphthyridin-8-ylamino)-2,2′-dimethylbiphenyl-3-yl)benzo[d]oxazol-5-yl)methyl)-3-methylpyrrolidine-3-carboxylic acid]
